In the SangsterLogP compilation:
Blank lines part the entries; values can stand above or below the molecule they belong to.

SMILES: CC(C)Nc1nc(Cl)nc(NC(C)C)n1
logP: 3.09

SMILES: Nc1cc(Cl)cc(C(=O)O)c1Cl
logP: 1.46

SMILES: Cc1[nH]c(=O)n(C(C)(C)C)c(=O)c1Cl
logP: 1.44

SMILES: COC(=O)C=C(C)OP(=O)(OC)OC
logP: 0.55

SMILES: CCCN(CC1CC1)c1c([N+](=O)[O-])cc(C(F)(F)F)cc1[N+](=O)[O-]
logP: 5.16

SMILES: Cc1cc(Cl)ccc1OCC(=O)O
logP: 2.69

SMILES: CC(C)OC(=O)Nc1cccc(Cl)c1
logP: 3.42

SMILES: CC(Cl)(Cl)C(=O)O
logP: 1.34

SMILES: CCCN(CCC)c1c([N+](=O)[O-])cc(S(C)(=O)=O)cc1[N+](=O)[O-]
logP: 4.78

SMILES: CCC(C)Nc1c([N+](=O)[O-])cc(C(C)(C)C)cc1[N+](=O)[O-] (centres undefined)
logP: 4.54

logP: 4.34
SMILES: O=C(O)c1c(Cl)ccc(Cl)c1Cl

SMILES: CCC(C)n1c(=O)[nH]c(C)c(Br)c1=O (centres undefined)
logP: 1.33

SMILES: ClC1=C(Cl)[C@]2(Cl)C3C(Cl)C(Cl)CC3[C@@]1(Cl)C2(Cl)Cl (some centres undefined)
logP: 5.89

SMILES: CN(C)C(=O)C(c1ccccc1)c1ccccc1
logP: 2.17
